Among the data in the Kinase Knowledgebase extract (Sharma et al. 2016) are activity values, retold here.

Molecules are shown by their SMILES.

Test [1] has as its target MAPK14 (human) (UniProt Q16539). Put plainly: Enzyme Assay. To be noted: A375; concentration not given here.
Test [2] shares this target. Put plainly: Enzyme Assay. To be noted: A375; concentration not given here. This is another data set of the same source.

MAPK14 (human), sequence (Q16539 whole entry, looked up): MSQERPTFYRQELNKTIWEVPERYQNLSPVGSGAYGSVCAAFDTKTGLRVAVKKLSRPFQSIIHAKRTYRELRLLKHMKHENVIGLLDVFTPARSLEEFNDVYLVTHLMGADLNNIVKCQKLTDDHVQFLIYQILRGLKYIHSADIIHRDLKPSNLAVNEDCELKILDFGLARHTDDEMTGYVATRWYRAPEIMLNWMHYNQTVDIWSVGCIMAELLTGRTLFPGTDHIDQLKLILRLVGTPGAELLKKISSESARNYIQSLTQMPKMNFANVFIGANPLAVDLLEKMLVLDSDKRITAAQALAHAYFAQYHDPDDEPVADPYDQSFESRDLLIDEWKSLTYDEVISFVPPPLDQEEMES

On to `COc1cccc(-c2cc(=O)c3ccccc3o2)c1N`, for which the activity at MAPK14 (human) [1] amounted to 25.3%; at MAPK14 (human) [2], 34.7%.
For `N#CC(=C(/N)Sc1ccccc1N)/C(C#N)=C(\N)Sc1ccccc1N`, the activity at MAPK14 (human) [1] came to 6.32%; on MAPK14 (human) [2], 18.9%.
